# Source: US20150125452A1, “COMBINATION TREATMENTS COMPRISING C-MET ANTAGONISTS AND B-RAF ANTAGONISTS” (GENENTECH, INC., priority 2011, published 2015)
# Tests used:
# Format in all cases: cell-based, Human
# [1] = test system: kinase-addicted cancer cell lines; assay: RTK ligand matrix screen, Syto 60 cell viability
# Protocol: (§1) Cell viability was assessed using the nucleic acid stain Syto 60 (Invitrogen). Cells (3000-5000 per well) were seeded into 96 well plates and allowed to adhere overnight. The next day, cells were treated with (or without) 50 ng/mL RTK ligand and concomitantly exposed to an increasing concentration range of the relevant kinase inhibitor. Following 72 hours drug exposure, cells were fixed in 4% formaldehyde, stained with Syto 60 and cell number was assessed using an Odyssey scanner (Li-Cor). Cell viability was calculated by dividing the fluorescence obtained from the drug-treated cells by the fluorescence obtained from the control (no drug) treated cells.
# Cell lines. Human cancer cell lines were obtained and tested for sensitivity using an automated platform as previously described (Johannessen, C. M. et al. COT drives resistance to RAF inhibition through MAP kinase pathway reactivation. Nature 468, 968-972, doi:10.1038/nature09627 (2010)). Cell lines were maintained at 37° C. in a humidified atmosphere at 5% CO2 and grown in RPMI 1640 or DMEM/F12 growth media (GIBCO) supplemented with 10% fetal bovine serum (GIBCO), 50 units/mL penicillin and 50 μg/mL streptomycin (GIBCO).
# Using 41 different human tumor-derived cell lines with previously defined kinase dependency^7-9, we undertook a “matrix analysis” to examine the effects of 6 different RTK ligands (HGF, EGF, FGF, PDGF, NRG1, IGF)—known to be widely expressed in cancer cells and tumor stroma^10—on drug response. Specifically, we quantified the effect of exposing these cancer cell lines (e.g., AU565 (HER2 amp)) to each ligand on the IC50 for a kinase inhibitor (e.g., lapatinib) that otherwise potently suppresses their growth within 72 hours (FIG. 1A). Nearly all of the kinase-dependent cancer cell lines tested, which included cells derived from multiple tissue types and with distinct kinase dependencies (EGFR, HER2, BRAF, MET, ALK, PDGFR, and FGFR), could be rescued from drug-induced growth inhibition by one or more RTK ligands, highlighting the potentially broad contribution of these ligands to the response to selective kinase inhibitors in kinase-addicted tumor cells (FIG. 1B).
# [2] = test system: AKT and ERK phosphorylation; assay: Immunoblots of survival pathway re-activation
# Protocol: FIGS. 2A-2C: pro-survival pathway re-activation correlated with RTK ligand rescue. FIG. 2A, Immunoblots showing the effect of acute RTK ligand treatment (50 ng/mL) on AKT and ERK phosphorylation following kinase inhibition (1 μM, 2 h). RTK ligand rescue is indicated, grey squares indicates complete rescue and black squares indicates partial rescue as determined by the initial screen (FIG. 1B). […] Cells were co-treated with 50 ng/mL RTK ligand in the presence of the appropriate secondary kinase inhibitor (0.5 μM) as indicated. […] Error bars represent mean+/−s.e.m. FIG. 2C, Immunoblots showing the effect of acute kinase inhibition (1 μM) in the presence and absence of RTK ligands (50 ng/mL, 2 h) on AKT and ERK phosphorylation. Cells were co-treated with secondary kinase inhibitor (0.5 μM) as appropriate.
# Cell lysates were harvested using Nonidet-P40 lysis buffer, supplemented with Halt protease and phosphatase inhibitor cocktail (Thermo Scientific) and immunodetection of proteins was carried out using standard protocols. The phospho-HER2 (Y1248; #2247), HER2 (#2242), phospho-HER3 (Y1289; #4791), phospho-MET (Y1234/5; #3126), PDGFRα (#5241), phospho-FRS2α (Y196; #3864), IGF-1Rβ (#3027), phospho-ALK (Y1604; #3341), AKT (#9272), phospho-ERK (T202/Y204; #9101), ERK (#9102), GAPDH (#2118) and β-Tubulin (#2146) antibodies were purchased from Cell Signaling Technologies. Antibodies to HER3 (SC-285), MET (SC-10), phospho-PDGFRα (SC-12911), FRS2α (SC-8318), FGFR1 (SC-7945), FGFR2 (SC-122), FGFR3 (SC-13121) and ALK (SC-25447) were purchased from Santa Cruz Biotechnologies. Phospho-AKT (S473; #44-621G) antibody was purchased from Invitrogen. Phospho-EGFR (Y1068; ab5644) antibody was purchased from Abeam. EGFR (#610017) antibody was purchased from BD Biosciences. PARP (#14-6666-92) antibody was purchased from eBioscience. Densitometry was carried out using ImageJ software.
# [3] = test system: AU565 HER2 amplified breast cancer cells; assay: Syto 60 viability and long-term staining with lapatinib and ligands
# Protocol: FIGS. 3A-3G: HGF promoted lapatinib resistance in HER2 amplified cell lines. […] HGF rescue is indicated, black squares indicates partial rescue as determined by the initial screen (FIG. 1B). […] Cells were treated every three days for the indicated times. […] FIG. 3D, Immunoblots showing the re-activation of pAKT and pERK in two MET positive (AU565, HCC1954) and one MET negative (BT474) HER2 amplified cell lines. […] FIG. 3E, Representative slides showing MET expression in HER2 positive (3+) breast cancer tissues. FIG. 3F, selection of higher MET expressing AU565 cells following 3× treatments with lapatinib (1 μM) and HGF (50 ng/mL). FIG. 3G. […] Cells were treated twice weekly for the indicated times.
# AU565 sells were co-treated with lapatinib (1 μM) in combination with 10 ng/mL NRG1 or FGF. […] Cells were treated with the appropriate kinase inhibitors in the presence of HGF (50 ng/mL). Cells were then treated with either 100 nM PI3K inhibitor (BEZ235) or MAPK inhibitor (AZD6244). Error bars represent mean+/−s.e.m.
# as §1
# [4] = test system: SK-MEL-28 cells; assay: Secreted factor screen, Cell Titer Glo; details: 5 μM PLX[…], 50 ng/mL factor, 72 h, 446 factors
# Protocol: […] […] […] Error bars represent mean+/−s.e.m.
# Following 72 h incubation, cell viability was determined using Cell Titer Glo (Promega).
substance,measurement,setting,value
HGF: recombinant human RTK ligand (MET ligand) purchased from Peprotech,effect of RTK ligand on conferring drug resistance to kinase inhibitors,"[1]; 50 ng/mL RTK ligand, 72 h, 41 cell lines",most broadly active ligands
same,effect of HGF on response to PLX[…],[1]; BRAF mutant PLX[…]-sensitive melanoma and colorectal cell lines,significantly attenuated the response
same,rescue despite activation of receptor and a downstream survival effector,"[1]; H2228 and H358 cells with HGF, COLO-201 cells with NRG1",not sufficient to rescue cells from kinase inhibition
same,PI3K/MAPK pathway re-activation by RTK ligand in presence of kinase inhibitor,"[2]; 50 ng/mL ligand, kinase inhibitor 1 μM, 2 h",re-activated both PI3K and MAPK pathways
same,re-activation of PI3K and MAPK signalling in HER2 amplified cell lines,"[2]; AU565, HCC1954 (MET positive), BT474 (MET negative), lapatinib 1 μM, HGF 50 ng/mL, 2 h","re-activated PI3K and MAPK signalling pathways specifically in MET-positive, but not in MET-negative cells"
same,persistence of redundant RTK activation and downstream survival signalling,"[2]; AU565 cells, lapatinib 1 μM and HGF 50 ng/mL",at least 48 hours
same,re-activation of AKT and ERK activity in presence of TAE684,[2]; H2228 cells,able to re-activate AKT and ERK activity
same,ERK and AKT activation in presence of TAE684,"[2]; H3122 cells, TAE684 1 μM, HGF 50 ng/mL, 2 h",promotes ERK and AKT activation
same,re-activation of MAPK signalling (pERK) in BRAF mutant cell lines,"[2]; PLX[…] 1 μM, HGF 50 ng/mL, 2 h, MET positive versus MET negative lines",could re-activate MAPK signalling in cell lines that were rescued by HGF
same,MET expression of cell population after co-treatment,[3]; 9-day lapatinib and HGF co-treatment,increased MET expression
same,resistance to lapatinib on longer-term co-treatment,"[3]; 12 days, lapatinib 1 μM, HGF 50 ng/mL",rapidly promoted resistance to lapatinib
same,effect of secreted factor on PLX[…] sensitivity,[4],could attenuate PLX4032 sensitivity
